# Source: patent US20180100153A1, “Method and kit for use in inhiiting tumor progression, predicting or determining tumor progression state in VGF expressing cancers” (Truebio LLC, priority 2016, published 2018)
# What was measured:
# HCC827GR cells [1] = experiment: IC50 analysis via alamarBlue assay, HCC827GR versus HCC827; type: cell-based
# [2] = system: HCC827GR/tet-on control cells; experiment: Xenograft assay with doxycycline; type: in vivo, nude mice; settings: daily oral Dox for 30 days
# Experimental: FIG. 13 illustrates VGF as a therapeutic target. (FIG. 13A) Q-PCR (left) analysis for VGF expression and clonogenic assay (right) in HCC827GR/tet-on control cells. […] (FIG. 13B) Xenograft assay for assessing the effect of doxycycline treatment on tumor growth. HCC827GR/tet-on control cells were injected subcutaneously into nude mice. 32 days after cancer cell injection, mice were treated with or without daily oral doxycycline (Dox) for another 30 days. Tumor volume was monitored over time as indicated (left). Tumor weight was measured after harvest (upper right). The representative photographs illustrate tumor growth 30 days after Dox or normal saline treatment (lower right). ns means no significant (n=6 mice/group). (FIG. 13C) Q-PCR (left) analysis for VGF expression and clonogenic assay (right) in HCC827GR/tet-on shVGF cells in which shVGF was induced by doxycycline (Dox). […] HCC827GR/tet-on-shVGF cells were injected subcutaneously into nude mice. 32 days after cancer cell injection, mice were treated with or without daily oral doxycycline (Dox) for another 30 days. Tumor volume was monitored over time as indicated (left). Tumor weight was measured after harvest (upper right). The representative photographs illustrate tumor growth 30 days after Dox or normal saline treatment (lower right). Scale bar, 1 mm. Error bars indicate the SEM (n=6 mice/group; *P<0.05). […]
# [3] = system: lung adenocarcinoma harboring EGFR mutations (exon 19 deletions or the L858R mutation); settings: References 5 to 10; cited from earlier work
# [4] = system: HCC827GR cells infected with shVGF; experiment: alamarBlue cell viability assay after VGF knockdown; type: cell-based; settings: HCC827GR cells with VGF-silencing, gefitinib 3 days, FIG. 3F
# Description: FIG. 3 illustrates expression of VGF in EGFR-TKI resistant lung cancer cells. […] Tubulin served as a loading control. (FIG. 3B) Q-PCR analysis (left) for measuring the expression of VGF in HCC827GR-2, an independently selected EGFR-TKI resistant HCC827 pool, versus and HCC827 cells. Tubulin served as a loading control. Gene expression analysis (right) for VGF expression in HCC827 and EGFR-TKI resistant clones (ER3 and T15-2) from the database of GSE38310. (FIG. 3C) Gene expression analysis for VGF expression in different subtypes of lung cancer cell lines from the database of […] (CCLE). SCLC: small cell lung cancer; ADC: adenocarcinoma; SCC: squamous cell carcinoma. […] (FIG. 3E) Q-PCR analysis (left) and western blotting (right) for measuring VGF expression in HCC827GR cells infected with lentiviral vectors encoding shVGF (shVGF) or scrambled control (SC). shVGF#1 and shVGF#2 target different regions in VGF mRNA.
# To identify genes involved in EGFR-TKI resistance and EMT in lung adenocarcinoma, a gene expression profiling assay followed by Q-PCR analysis were performed in HCC827GR versus HCC827 cells (FIG. 3A, upper). […] . […] Consistently, the expression of VGF was elevated in the independently isolated TKI resistance HCC827 cells (FIGS. 3B and 10). […] The inventors further examined VGF levels in cell lines derived from different subtypes of lung cancer. […] .
# HCC827GR cells [5] = experiment: Western blot of apoptosis markers (activated caspase 3, cleaved PARP); type: cell-based; settings: gefitinib 1 μM, 24 hr
# HEK293T cells = experiment: Clonogenic analysis of VGF mutants under low serum stress; type: cell-based; settings: transfected HEK293T cells, DMEM with 1% FBS, 10 days
# Description: FIG. 18 illustrates effect of VGF mutants on low serum stress. (FIG. 18A) Schematic representation of VGF deletion mutations (FIG. 18B) A table summarizing clonogenic analysis of HEK293T cells transfected with expression vector encoding empty control (Ctrl), full-length VGF cDNA (VGF), or truncated VGF cDNA as described in the FIG. 18A under the growth of DMEM supplement with 1% FBS for 10 days.
# The effect of VGF mutants on low serum stress was examined (FIG. 18). Clonogenic analysis of HEK293T cells transfected with expression vector encoding empty control, full-length VGF cDNA, or truncated VGF cDNA under the growth of DMEM supplement with 1% FBS for 10 days were summarized in FIG. 18B.
molecule,measurement,setting,value
C=CC(=O)Nc1cc(Nc2nccc(-c3cn(C)c4ccccc34)n2)c(OC)cc1N(C)CCN(C)C [AZD9291],IC50 analysis (EGFR-TKI resistance),HCC827GR cells [1],resistance
"C[C@H]1c2cccc(O)c2C(=O)C2=C(O)[C@]3(O)C(=O)C(C(N)=O)=C(O)[C@@H](N(C)C)[C@@H]3[C@@H](O)[C@@H]21 [Dox, doxycycline]",tumor growth,[2],no effect
C#Cc1cccc(Nc2ncnc3cc(OCCOC)c(OCCOC)cc23)c1 [erlotinib],therapeutic response,[3],profound therapeutic responses
COc1cc2ncnc(Nc3ccc(F)c(Cl)c3)c2cc1OCCCN1CCOCC1 [gefitinib],cell viability (sensitivity to gefitinib),[4],sensitive
same,expression of activated caspase 3 and PARP (apoptosis),HCC827GR cells [5],resistant to gefitinib-induced apoptosis
"VGF 1-615: full length VGF, expressed from full-length VGF cDNA vector (protein, UniProt O15240 1-615, looked up, full-length, full length VGF, expressed from full-length VGF cDNA vector) MKALRLSASALFCLLLINGLGAAPPGRPEAQPPPLSSEHKEPVAGDAVPGPKDGSAPEVRGARNSEPQDEGELFQGVDPRALAAVLLQALDRPASPPAPSGSQQGPEEEAAEALLTETVRSQTHSLPAPESPEPAAPPRPQTPENGPEASDPSEELEALASLLQELRDFSPSSAKRQQETAAAETETRTHTLTRVNLESPGPERVWRASWGEFQARVPERAPLPPPAPSQFQARMPDSGPLPETHKFGEGVSSPKTHLGEALAPLSKAYQGVAAPFPKARRPESALLGGSEAGERLLQQGLAQVEAGRRQAEATRQAAAQEERLADLASDLLLQYLLQGGARQRGLGGRGLQEAAEERESAREEEEAEQERRGGEERVGEEDEEAAEAEAEAEEAERARQNALLFAEEEDGEAGAEDKRSQEETPGHRRKEAEGTEEGGEEEDDEEMDPQTIDSLIELSTKLHLPADDVVSIIEEVEEKRKRKKNAPPEPVPPPRAAPAPTHVRSPQPPPPAPAPARDELPDWNEVLPPWDREEDEVYPPGPYHPFPNYIRPRTLQPPSALRRRHYHHALPPSRHYPGREAQARRAQEEAEAEERRLQEQEELENYIEHVLLRRP",cell survival in clonogenic analysis,HEK293T cells,survived
